Test results reported in BigSolDB 2.1.

CP(=O)(c1ccccc1)c1ccccc1
Details | solubility (mole fraction)
in benzene, 288.52 K | 0.0439
in benzene, 293.56 K | 0.0573
in benzene, 298.13 K | 0.0698
in benzene, 303.21 K | 0.0875
in benzene, 308.12 K | 0.102
in benzene, 312.55 K | 0.123
in benzene, 318.04 K | 0.156
in benzene, 323.17 K | 0.183
in ethyl acetate, 293.25 K | 0.0415
in ethyl acetate, 298.46 K | 0.0497
in ethyl acetate, 302.88 K | 0.0618
in ethyl acetate, 307.97 K | 0.0744
in ethyl acetate, 313.22 K | 0.0885
in ethyl acetate, 317.25 K | 0.104
in ethyl acetate, 322.14 K | 0.128
in ethyl acetate, 326.93 K | 0.15
in ethylbenzene, 293.35 K | 0.0183
in ethylbenzene, 298.04 K | 0.0224
in ethylbenzene, 303.12 K | 0.0304
in ethylbenzene, 308.33 K | 0.0393
in ethylbenzene, 312.8 K | 0.0464
in ethylbenzene, 317.51 K | 0.061
in ethylbenzene, 321.25 K | 0.0719
in ethylbenzene, 326.39 K | 0.0876
in m-xylene, 293.75 K | 0.0129
in m-xylene, 298.16 K | 0.0167
in m-xylene, 303.32 K | 0.0216
in m-xylene, 307.41 K | 0.0258
in m-xylene, 313 K | 0.0332
in m-xylene, 317.53 K | 0.0398
in m-xylene, 320.55 K | 0.0453
in m-xylene, 326.39 K | 0.0614
in o-xylene, 293.35 K | 0.0281
in o-xylene, 298.08 K | 0.0343
in o-xylene, 303.11 K | 0.0406
in o-xylene, 308.23 K | 0.0454
in o-xylene, 313.09 K | 0.0525
in o-xylene, 317.05 K | 0.0603
in o-xylene, 321.94 K | 0.071
in o-xylene, 328.07 K | 0.0821
in p-xylene, 293.65 K | 0.0131
in p-xylene, 298.19 K | 0.0175
in p-xylene, 303.31 K | 0.0219
in p-xylene, 308.42 K | 0.03
in p-xylene, 313.11 K | 0.036
in p-xylene, 317.38 K | 0.0442
in p-xylene, 320.55 K | 0.0539
in p-xylene, 326.44 K | 0.0679
in toluene, 293.35 K | 0.0227
in toluene, 298.16 K | 0.0287
in toluene, 303.08 K | 0.0386
in toluene, 307.11 K | 0.0498
in toluene, 312.12 K | 0.065
in toluene, 316.4 K | 0.0798
in toluene, 320.95 K | 0.0979
in toluene, 326.54 K | 0.135
